Reference: ChEMBL document CHEMBL1201862, “PubChem BioAssay data set” (2004)
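Step 1: Grow cells in 96-well plates. Step 2: Expose to compound for 48 hours at 5 concentrations. Step 3: Interpolate endpoints linearly; if unreached, use highest concentration. GI50 = concentration required for 50% inhibition of growth.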 The source made the active and inactive calls. Rule as the data show it: active = GI50 up to about 1.1 µM and inactive = higher.

Legend:
Experiment in all cases: NCI anticancer screen, dose series, 48 h
MDA-MB-435 = system: MDA-MB-435
T47D = system: T47D
EKVX = system: EKVX
OVCAR-3 = system: OVCAR-3
U-251 = system: U-251
KM12 = system: KM12
HL-60 = system: HL-60
OVCAR-5 = system: OVCAR-5
A549 = system: A549
A498 = system: A498
CCRF-CEM = system: CCRF-CEM
Hs-578T = system: Hs-578T
SK-MEL-2 = system: SK-MEL-2
PC-3 = system: PC-3
ACHN = system: ACHN
MOLT-4 = system: MOLT-4
SW-620 = system: SW-620
SN12C = system: SN12C
HCC 2998 = system: HCC 2998
NCI/ADR-RES = system: NCI/ADR-RES

Structure (SMILES)	GI50 (MDA-MB-435)	GI50 (T47D)	GI50 (EKVX)	GI50 (OVCAR-3)	GI50 (U-251)	GI50 (KM12)	GI50 (HL-60)	GI50 (OVCAR-5)	GI50 (A549)	GI50 (A498)	GI50 (CCRF-CEM)	GI50 (Hs-578T)	GI50 (SK-MEL-2)	GI50 (PC-3)	GI50 (ACHN)	GI50 (MOLT-4)	GI50 (SW-620)	GI50 (SN12C)	GI50 (HCC 2998)	GI50 (NCI/ADR-RES)
CC(C)Cc1ccc(C(C)/C=C2\CCC(CN3CCCCC3)C2=O)cc1 (stereo unspecified)	13.6 µM (inactive)	5.09 µM (inactive)	13.6 µM (inactive)	4.03 µM (inactive)	2.14 µM (inactive)	2.56 µM (inactive)	1.12 µM (inactive)	17.4 µM (inactive)	20 µM (inactive)	14.3 µM (inactive)	1.5 µM (inactive)	4.71 µM (inactive)	13.3 µM (inactive)	6.31 µM (inactive)	6.98 µM (inactive)	1.63 µM (inactive)	3.45 µM (inactive)	2.12 µM (inactive)	6.37 µM (inactive)	
O=C1CC(c2cccc(F)c2)Nc2cc3c(cc21)OCO3 (stereo unspecified)	0.0136 µM (active)	> 100 µM (inactive)	< 0.01 µM (active)	0.0521 µM (active)	0.0344 µM (active)	0.0463 µM (active)		0.054 µM (active)	0.0363 µM (active)	< 0.01 µM (active)	0.033 µM (active)	< 0.01 µM (active)	0.0356 µM (active)	0.0301 µM (active)	0.0649 µM (active)	< 0.01 µM (active)	0.0393 µM (active)	0.0509 µM (active)	0.0593 µM (active)	0.027 µM (active)
O=C(Nc1cc2c(=O)[nH]c3ccccc3c2oc1=O)c1cnccn1	> 100 µM (inactive)	> 100 µM (inactive)	> 100 µM (inactive)	> 100 µM (inactive)	> 100 µM (inactive)	> 100 µM (inactive)		> 100 µM (inactive)	> 100 µM (inactive)		> 100 µM (inactive)		> 100 µM (inactive)	> 100 µM (inactive)	> 100 µM (inactive)	> 100 µM (inactive)	> 100 µM (inactive)	> 100 µM (inactive)	> 100 µM (inactive)	> 100 µM (inactive)
CCOC(=O)NN(C(=O)OCC)C(C(=O)C1=CCCCC1)N(NC(=O)OCC)C(=O)OCC	> 100 µM (inactive)	> 100 µM (inactive)	> 100 µM (inactive)	> 100 µM (inactive)	> 100 µM (inactive)	> 100 µM (inactive)		> 100 µM (inactive)	> 100 µM (inactive)	22.6 µM (inactive)		> 100 µM (inactive)	> 100 µM (inactive)	> 100 µM (inactive)	> 100 µM (inactive)	> 100 µM (inactive)	> 100 µM (inactive)	> 100 µM (inactive)	> 100 µM (inactive)	> 100 µM (inactive)
COc1ccc(C)cc1NC(=S)C#N	> 100 µM (inactive)	> 100 µM (inactive)		27.1 µM (inactive)	> 100 µM (inactive)	36.2 µM (inactive)	> 100 µM (inactive)	29.6 µM (inactive)	> 100 µM (inactive)	> 100 µM (inactive)	71 µM (inactive)		29.2 µM (inactive)	26.4 µM (inactive)	30.3 µM (inactive)		> 100 µM (inactive)	> 100 µM (inactive)	44.6 µM (inactive)	27.4 µM (inactive)
C[C@@]1(O)C[C@@H](N2C(=O)O[C@@H](c3ccccc3)[C@H]2c2ccccc2)[C@@H]1COCc1ccccc1	28.4 µM (inactive)		20.5 µM (inactive)	17.3 µM (inactive)	14.6 µM (inactive)	19.6 µM (inactive)	6.35 µM (inactive)	23.1 µM (inactive)	22.6 µM (inactive)	18.4 µM (inactive)		21.9 µM (inactive)	12.7 µM (inactive)	15.9 µM (inactive)	26.2 µM (inactive)	5.41 µM (inactive)	26 µM (inactive)	17.4 µM (inactive)	19.8 µM (inactive)	15.2 µM (inactive)
COc1cc2c(cc1C[C@H]1[C@@H]3C[C@H]4c5c(c6ccccc6n5C)C[C@@H]([C@@H]3CO[C@]1(C)OC(C)=O)N4C)c1c(n2C)C2C[C@H]3C(C(C)=O)=COC[C@H]3[C@H](C1)N2C	> 25 µM (inactive)	2.2 µM (inactive)	0.403 µM (active)	2.66 µM (inactive)	5.57 µM (inactive)	2 µM (inactive)		4.35 µM (inactive)	> 25 µM (inactive)	12.3 µM (inactive)	2.55 µM (inactive)	2.8 µM (inactive)	4.86 µM (inactive)	0.462 µM (active)	3.87 µM (inactive)	2.44 µM (inactive)	4.13 µM (inactive)	6.24 µM (inactive)	0.0102 µM (active)	2.93 µM (inactive)
O=P1(Oc2ccccc2)NCc2ncccc2O1 (stereo unspecified)	> 100 µM (inactive)	> 100 µM (inactive)	> 100 µM (inactive)	> 100 µM (inactive)	> 100 µM (inactive)	> 100 µM (inactive)		> 100 µM (inactive)	> 100 µM (inactive)	> 100 µM (inactive)	> 100 µM (inactive)		> 100 µM (inactive)	> 100 µM (inactive)	> 100 µM (inactive)	> 100 µM (inactive)	> 100 µM (inactive)	> 100 µM (inactive)	> 100 µM (inactive)	> 100 µM (inactive)
Cc1cc(N(CCC#N)CCC#N)ccc1C(/N=N\c1ccc(C(=O)O)cc1)=N\NC(=O)c1cc(Cl)ccc1O	> 100 µM (inactive)	40.7 µM (inactive)	33 µM (inactive)	56.2 µM (inactive)	24.9 µM (inactive)	28.8 µM (inactive)		> 100 µM (inactive)	42.2 µM (inactive)	28.6 µM (inactive)	59.8 µM (inactive)	19.7 µM (inactive)	83.6 µM (inactive)	61 µM (inactive)	31.7 µM (inactive)	> 100 µM (inactive)		> 100 µM (inactive)	> 100 µM (inactive)	37.6 µM (inactive)
CNc1ncnc2c1cnn2COCC(O)CO (stereo unspecified)	> 100 µM (inactive)	> 100 µM (inactive)	> 100 µM (inactive)	> 100 µM (inactive)	> 100 µM (inactive)	> 100 µM (inactive)		> 100 µM (inactive)	> 100 µM (inactive)	> 100 µM (inactive)	> 100 µM (inactive)	> 100 µM (inactive)	> 100 µM (inactive)	> 100 µM (inactive)	> 100 µM (inactive)	> 100 µM (inactive)	> 100 µM (inactive)	> 100 µM (inactive)	> 100 µM (inactive)	> 100 µM (inactive)
COc1cc2c(c(OC)c1OC)-c1c(cc3c(c1OC)OCO3)CC(C)C(C)(O)C2OC(=O)c1ccccc1 (stereo unspecified)	55 µM (inactive)	42.3 µM (inactive)	36 µM (inactive)	29.9 µM (inactive)	39.9 µM (inactive)	41.1 µM (inactive)	19.5 µM (inactive)	> 100 µM (inactive)	42.1 µM (inactive)	39.8 µM (inactive)	25.9 µM (inactive)	32.5 µM (inactive)	25 µM (inactive)	26.6 µM (inactive)	32 µM (inactive)	5.58 µM (inactive)	71.8 µM (inactive)	40.5 µM (inactive)	22.9 µM (inactive)	
S=C1/C(=N/c2ccccc2)N(c2ccccc2)/C(=N\c2cccc[n+]2Cc2ccccc2)N1c1ccccc1	10.6 µM (inactive)	22.8 µM (inactive)	19.7 µM (inactive)	18.5 µM (inactive)	> 10 µM (inactive)	16.6 µM (inactive)		15.9 µM (inactive)	20.9 µM (inactive)			33.9 µM (inactive)	24.3 µM (inactive)	12.1 µM (inactive)	17 µM (inactive)	8.79 µM (inactive)	13.9 µM (inactive)	21 µM (inactive)	13.9 µM (inactive)	39.9 µM (inactive)
CO/N=C(\C(=O)N(C)n1cnnc1)c1csc(NC(c2ccccc2)(c2ccccc2)c2ccccc2)n1		> 10 µM (inactive)	> 10 µM (inactive)	> 10 µM (inactive)	> 10 µM (inactive)	> 10 µM (inactive)	> 10 µM (inactive)	> 10 µM (inactive)	> 10 µM (inactive)	> 10 µM (inactive)	> 10 µM (inactive)	> 10 µM (inactive)	> 10 µM (inactive)	> 10 µM (inactive)	> 10 µM (inactive)	> 10 µM (inactive)	> 10 µM (inactive)	> 10 µM (inactive)	> 10 µM (inactive)	> 10 µM (inactive)
CCn1c(=O)c2c3ccc(OC(C)=O)cc3[nH]c2c2ccc(OC(C)=O)cc21	41 µM (inactive)	18.5 µM (inactive)		32 µM (inactive)	37.2 µM (inactive)	34.7 µM (inactive)		> 100 µM (inactive)	64.7 µM (inactive)		15.2 µM (inactive)	34.5 µM (inactive)		26.9 µM (inactive)	31.9 µM (inactive)	17.6 µM (inactive)	30.7 µM (inactive)	32.7 µM (inactive)	23.7 µM (inactive)	> 100 µM (inactive)
NS(=O)(=O)c1nnc(NC(=O)CCC(=O)O)s1	> 100 µM (inactive)	> 100 µM (inactive)	> 100 µM (inactive)	> 100 µM (inactive)	> 100 µM (inactive)	> 100 µM (inactive)	> 100 µM (inactive)	> 100 µM (inactive)	> 100 µM (inactive)	> 100 µM (inactive)		> 100 µM (inactive)	> 100 µM (inactive)		> 100 µM (inactive)	> 100 µM (inactive)	> 100 µM (inactive)	> 100 µM (inactive)	> 100 µM (inactive)	> 100 µM (inactive)
